Earlier results in patent publication US20140328949A1, “ELECTROCHEMICALLY GENERATED ANTIMICROBIAL SODIUM HYDROXIDE SOLUTION” (priority 2013, published 2014).

Tested on: hairy foot warts
Conditions: for efficacy of footbath treatment against hairy foot warts: footbaths, formalin 5%, zinc sulfate 3× footbaths, spread and mild lesions

SMILES | efficacy against more serious hairy foot wart lesions (3× footbaths, 1990 study) | efficacy of footbath treatment against hairy foot warts
O=S(=O)([O-])[O-].[Zn+2] [Zinc sulfate] | ineffective | effective at controlling the spread of hairy foot warts and treating mild lesions
O=S(=O)([O-])[O-].[Cu+2] [copper sulfate, Copper sulfate] | – | not an effective treatment
C=O [formalin] | – | effective in controlling hairy foot wart outbreaks
